{"source": "patent US20160051533A1", "about": "“DIAGNOSIS AND PHARMACOLOGICAL TREATMENT OF SEASONAL AFFECTIVE DISORDER AND SYMPTOMS OF SEASONALITY” (Ladd Research LLC, priority 2014, published 2016)", "key": {"Wistar female rats [1]": {"tested_on": "Wistar female rats", "experiment": "Open-field test (OFT) in rats under shifted photoperiods", "conditions": "OFT first session; for effect on the Distance: 100 mg/kg", "protocol": "Activity was tested in open boxes (open-fields: 100 cm wide, 100 cm long, 50 cm high) made of PVC. Animals' activity was recorded by an electronic videotracking detection system (Viewpoint, France) allowing to detect the distance travelled and the time spent in different parts of the open-field.\nLight intensity was 7-10 Lux at the center of the open-fields.\nAnimals were individually placed for a 10-min session in the center of one quadrant of the open-field.\nParameters analyzed were: • 1) One parameter taken as an index of locomotor-exploratory behavior: • The distance travelled in the open-field. • 2) Two parameters taken as indices of anxiety behavior: • a) % Dist Cent=the percentage of distance travelled in the central 60×60 cm area of the open-field. • b) % Time cent=the percentage of time spent in the central 60×60 cm area of the open-field.\n(§1) A difference was considered: • 1) Statistically significant: p≦0.05. • 2) Close-to-significant difference: 0.05<p≦0.10. • 3) Not significant: p>0.10."}, "Wistar female rats [2]": {"tested_on": "Wistar female rats", "experiment": "Forced swimming test (FST) in rats under shifted photoperiods", "protocol": "Animals of CL and LL groups received the vehicles in the same conditions.\nThe same animals were tested by the same experimenter on the two FST sessions. The same proportion of animals of each group was tested by each experimenter.\nThe apparatus used for the experiment consisted of glass cylinders (64 cm high, 25 cm diameter) filled with 30 cm 25° C. water. The experiment was recorded with a camcorder, placed in front of the glass cylinder and connected to a screen, allowing the experimenter to watch the test online.\nLight intensity was 15-20 Lux at the level of glass cylinders.\nThe behavior of the rat was measured on the second trial.\nBehavior was classified as one of three behaviors: • 1) Immobility, defined as floating in the water without struggling and using only small movements to keep the head above water. • 2) Swimming, defined as moving limbs in an active manner, more than required to keep the head above water and causing movement among quadrants of the cylinder. • 3) Climbing, defined as making active movements with forepaws moving in and out of the water, usually directed against the side of the cylinder. Parameters analyzed were:\n1) Imo=the immobility time.\n2) Swm=the swimming time.\n3) Clb=the climbing time.\nA depressive-like profile is indicated by an increase of the immobility time and a decrease of either the swimming time or the climbing time. Conversely, an antidepressant-like effect is indicated by a decrease of the immobility time and an increase of either the swimming time or the climbing time.\nas §1"}, "recombinant human OxR1": {"biological_target": "T1, recombinant human OxR1 (Homo sapiens, UniProt O43613)", "T1 sequence (O43613 1-425)": "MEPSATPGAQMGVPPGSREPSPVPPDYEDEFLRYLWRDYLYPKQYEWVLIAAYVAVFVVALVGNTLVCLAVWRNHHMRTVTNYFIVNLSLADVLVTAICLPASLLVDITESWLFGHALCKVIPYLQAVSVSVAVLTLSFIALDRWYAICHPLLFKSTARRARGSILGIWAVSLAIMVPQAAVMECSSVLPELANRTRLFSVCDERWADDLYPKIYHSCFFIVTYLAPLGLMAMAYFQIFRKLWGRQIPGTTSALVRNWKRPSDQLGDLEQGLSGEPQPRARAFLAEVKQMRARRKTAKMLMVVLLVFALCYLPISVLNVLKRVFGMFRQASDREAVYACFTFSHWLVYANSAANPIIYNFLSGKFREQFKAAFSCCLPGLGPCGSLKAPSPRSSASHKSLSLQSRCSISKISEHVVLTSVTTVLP", "conditions": "cited from earlier work"}, "OxR2 [3]": {"biological_target": "T2, OxR2 (Homo sapiens, UniProt O43614)", "T2 sequence (O43614 1-444)": "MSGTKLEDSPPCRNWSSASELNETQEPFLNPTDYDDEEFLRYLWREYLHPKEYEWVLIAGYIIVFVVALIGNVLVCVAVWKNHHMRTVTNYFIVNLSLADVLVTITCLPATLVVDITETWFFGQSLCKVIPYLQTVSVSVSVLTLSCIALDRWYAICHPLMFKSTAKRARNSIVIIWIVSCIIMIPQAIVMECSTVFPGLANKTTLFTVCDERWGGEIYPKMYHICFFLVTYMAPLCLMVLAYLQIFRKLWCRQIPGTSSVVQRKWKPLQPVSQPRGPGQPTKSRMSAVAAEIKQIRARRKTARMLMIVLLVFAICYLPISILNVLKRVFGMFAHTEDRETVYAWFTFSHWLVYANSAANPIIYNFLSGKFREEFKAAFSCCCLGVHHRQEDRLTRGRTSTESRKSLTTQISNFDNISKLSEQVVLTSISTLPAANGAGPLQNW", "conditions": "cited from earlier work"}, "Wistar female rats [4]": {"tested_on": "Wistar female rats", "experiment": "Marble burying test (MBT) in rats under shifted photoperiods", "protocol": "The marble burying test can score the ability of rats to remove slight stressors, the marbles, from their environments.\nAnimals of LL-DMSO, LL-Wat, SL-DMSO, SL-Wat and SL-Almo groups were subjected to the marble burying test only once during the period of the study: at the 51st or 52nd days of treatment (see Table 2).\nThe experiment was conducted in twelve Plexiglas transparent open-boxes (42 cm L, 42 cm W, 40 cm H) filled with 5 cm sawdust. Twenty-five clean glass marbles (15 mm diameter) were evenly spaced 5 cm apart on sawdust. The number of marbles buried was counted at the end of the session.\nLight intensity was 30 Lux at the center of the open-boxes.\nAnimals were individually placed for a 5-min session in the experimental apparatus.\nThe number of marbles was counted at the end of the session: • 1) Number of marbles not buried. • 2) Number of marbles ⅓ buried. • 3) Number of marbles ⅔ buried. • 4) Number of marbles totally buried.\nParameters analyzed were: • 1) Unburied=the number of marbles not buried. • 2) ≧⅔ buried=number of marbles ⅔ buried+number of marbles totally buried • 3) Tot buried=number of marbles totally buried."}, "[5]": {"tested_on": "rat ventral tegmental area dopamine neurons", "conditions": "1 micro molar of Almorexant; cited from earlier work"}, "OxR2 [6]": {"biological_target": "T2, OxR2", "conditions": "over 4 hours; cited from earlier work"}, "rat OxR1": {"biological_target": "T3, rat OxR1 (Rattus norvegicus, UniProt P56718)", "T3 sequence (P56718 1-416)": "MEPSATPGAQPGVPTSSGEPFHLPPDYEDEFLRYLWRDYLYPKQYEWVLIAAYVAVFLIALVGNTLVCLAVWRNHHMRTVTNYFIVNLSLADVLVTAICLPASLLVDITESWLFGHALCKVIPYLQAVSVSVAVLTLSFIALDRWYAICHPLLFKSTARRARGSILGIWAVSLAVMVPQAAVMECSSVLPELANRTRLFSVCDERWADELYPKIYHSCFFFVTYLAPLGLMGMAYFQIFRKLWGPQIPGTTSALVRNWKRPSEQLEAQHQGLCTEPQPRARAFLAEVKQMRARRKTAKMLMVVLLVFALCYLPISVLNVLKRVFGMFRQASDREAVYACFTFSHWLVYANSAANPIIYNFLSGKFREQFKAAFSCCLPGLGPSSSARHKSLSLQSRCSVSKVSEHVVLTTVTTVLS", "conditions": "rat OxR1 cell cultures, t=30 min to t=4 hours; cited from earlier work"}, "OxR2 [7]": {"biological_target": "T2, OxR2", "conditions": "cited from earlier work", "remark": "listed apart in the source"}, "OxR2 [8]": {"biological_target": "T2, OxR2", "conditions": "read-out: Human OxR2 FLIPR; cited from earlier work"}, "Wistar female rats [9]": {"tested_on": "Wistar female rats", "experiment": "Elevated-plus maze (EPM) test in rats under shifted photoperiods", "description": "Animals were subjected to the elevated-plus maze (EPM) test only once during the period of the study: at the 43th, 44th or 45th days of treatment (see Table 2).\nThe apparatus consisted of a plus-shaped maze, elevated 50 cm from the floor, with two opposite open arms, 50×10 cm, crossed at right angles by two arms of the same dimensions, but enclosed by 40-cm-high black opaque walls with an open roof. In addition a 1-cm-high edge made of Plexiglas surrounded the open arms to avoid falls.\nLight intensity was 10 Lux at the level of open arms.\nThe experiment was recorded with a camcorder, placed 1.5 m above the maze and connected to a screen, allowing the experimenter to watch the test online.\nAnimals were individually placed for a 5-min session in the center of the plus-maze. The number of arm entries and the time spent in arms were recorded. An arm entry is defined as all four paws into the arm.\nOther parameters were recorded: the time spent in open arms, the number of open arm entries, the time spent in enclosed arms, the number of enclosed arm entries and the time spent in the center of the maze.\n1) Enclosed arm entries: entries into the protected arms of the EPM\nas §1"}, "[10]": {"experiment": "Body weight / growth rate in rats under shifted photoperiods", "conditions": "for Body weight in percent of initial body weight (d−4): short light (SL) rats, mean", "protocol": "Rats were weighed three times a week in order to examine the effect of L/D changes and the effects of treatments on the body weight.\nAnimals' body weight was recorded three days per week. The body weight on day d-4 was considered as the initial body weight.\nInitial body weight (BW) between recorded on day d-4, before the initiation of L/D change analyzed by 1-factor ANOVA and Student's t-test.\nTherefore, the following analyses were performed on the BW expressed in percentage of the initial BW. • 2) Effect of L/D condition:\nThe BW expressed in percentage of the initial BW was compared between by ANOVA for repeated measures (from day dl to day d54): • a) On C-Veh, LL-Veh and SL-Veh groups: overall effect. • b) On C-Veh and LL-Veh groups: effect of LL. • c) On C-Veh and SL-Veh groups: effect of SL. • d) On LL-Veh and SL-Veh groups: difference LL vs. SL. • 3) Effect of vehicle:"}, "[11]": {"conditions": "SL-Almo vs SL-Wat, 100 mg/kg PO"}, "[12]": {"conditions": "Short Light rats, Almorexant 100 mg/kg PO daily, group mean"}, "[13]": {"conditions": "FST second session, SL-Almo vs SL-Wat, 100 mg/kg PO, 100 mg/kg"}, "[14]": {"conditions": "FST second session, short light (SL) rats, group mean"}, "[15]": {"conditions": "MBT reanalysis, SL rats, almorexant"}, "[16]": {"conditions": "MBT, SL-Almo vs SL-Wat, 100 mg/kg PO"}, "[17]": {"conditions": "MBT, short light (SL) rats, group mean"}, "[18]": {"conditions": "EPM, SL-Almo vs SL-Wat, 100 mg/kg PO, 100 mg/kg"}, "[19]": {"conditions": "EPM, short light (SL) rats, group mean, water vehicle comparison groups"}}, "note": "Entries after “also recorded” stand apart in the source; their conditions may differ.", "data": [{"smiles": "CNC(=O)[C@@H](c1ccccc1)N1CCc2cc(OC)c(OC)cc2[C@@H]1CCc1ccc(C(F)(F)F)cc1.Cl", "note": "[Almorexant HCl]", "values": [{"measurement": "effect on the % Dist Center", "setting": "Wistar female rats [1]; [11]", "value": "Did not significantly modify"}, {"measurement": "effect on the % Time Center", "setting": "Wistar female rats [1]; [11]", "value": "Did not significantly modify"}, {"measurement": "effect on the Distance", "setting": "Wistar female rats [1]; SL-Almo vs SL-Wat, 100 mg/kg PO, listed as Almorexant", "value": "Tended to reduce the decrease in mobility caused by the SL"}, {"measurement": "effect on the Distance", "setting": "Wistar female rats [1]; SL-Almo vs SL-Wat, 100 mg/kg PO, listed as almorexant", "value": "Did not significantly modify"}, {"measurement": "% Dist Cent", "setting": "Wistar female rats [1]; [12]", "value": 9.9, "unit": "%"}, {"measurement": "% Time Cent", "setting": "Wistar female rats [1]; [12]", "value": 6.7, "unit": "%"}, {"measurement": "Distance travelled", "setting": "Wistar female rats [1]; [12]", "value": 8786.5, "unit": "cm"}, {"measurement": "anxiety-like behavior", "setting": "Wistar female rats [1]; almorexant 100 mg/kg PO", "value": "did not induce effect"}, {"measurement": "motor exploratory activity", "setting": "Wistar female rats [1]; almorexant 100 mg/kg PO", "value": "did not modify"}, {"measurement": "effect on the swimming time (Swm)", "setting": "Wistar female rats [2]; FST second session, SL-Almo vs SL-Wat, 100 mg/kg PO", "value": "Did not significantly modify"}, {"measurement": "effect on the climbing time (Clb)", "setting": "Wistar female rats [2]; [13]", "value": "increased; also recorded: Tended to increase"}, {"measurement": "effect on the immobility time (Imo)", "setting": "Wistar female rats [2]; [13]", "value": "Decreased"}, {"measurement": "antidepressant-like effect", "setting": "Wistar female rats [2]; FST second session, almorexant 100 mg/kg PO", "value": "induced an antidepressant-like effect"}, {"measurement": "Immobility time (Imo)", "setting": "Wistar female rats [2]; [14]", "value": 111.5, "unit": "s"}, {"measurement": "climbing time (Clb)", "setting": "Wistar female rats [2]; [14]", "value": 68.7, "unit": "s"}, {"measurement": "percentage swimming time (Swim)", "setting": "Wistar female rats [2]; [14]", "value": 119.8, "unit": "s"}, {"measurement": "FST 2 binned climbing time (FIG. 13)", "setting": "Wistar female rats [2]; double blind reanalysis of video, SL-Almo vs SL-Veh", "value": "statistically significant anti-depressant and anti-despair effect"}, {"measurement": "binding and dissociation rates at hOxR1", "setting": "recombinant human OxR1", "value": "fast binding and dissociation rates"}, {"measurement": "classification of antagonism at hOxR1", "setting": "recombinant human OxR1", "value": "competitive antagonist"}, {"measurement": "Kd", "setting": "OxR2 [3]; [3H] Almorexant, human OxR2", "value": 0.17, "unit": "nM"}, {"measurement": "classification of antagonism at hOxR2", "setting": "OxR2 [3]", "value": "non-competitive antagonist"}, {"measurement": "marbles greater than ⅓ buried (FIG. 20)", "setting": "Wistar female rats [4]; [15]", "value": "treated with statistical significance"}, {"measurement": "marbles ⅓ buried (FIG. 22)", "setting": "Wistar female rats [4]; [15]", "value": "treated statistically significantly"}, {"measurement": "marbles ⅓ or less buried (FIG. 21)", "setting": "Wistar female rats [4]; [15]", "value": "treated with statistical significance"}, {"measurement": "unburied marbles", "setting": "Wistar female rats [4]; [16]", "value": "Reduced the increase"}, {"measurement": "≧⅔ buried marbles", "setting": "Wistar female rats [4]; [16]", "value": "Reduced the decrease"}, {"measurement": "Number of unburied marbles", "setting": "Wistar female rats [4]; [17]", "value": 5.3}, {"measurement": "number of totally buried", "setting": "Wistar female rats [4]; [17]", "value": 8.9}, {"measurement": "number of ≧⅔ buried marbles", "setting": "Wistar female rats [4]; [17]", "value": 16.3}, {"measurement": "block of the effect of orexin A on firing", "setting": "[5]", "value": "completely block the effect of orexin A"}, {"measurement": "change of OxR2 Ki over time", "setting": "OxR2 [6]", "value": "decrease over 4 hours"}, {"measurement": "change of Ki over time", "setting": "rat OxR1", "value": "remains relatively unchanged"}, {"measurement": "Ki", "setting": "OxR2 [7]", "value": 0.9, "unit": "nM"}, {"measurement": "IC50", "setting": "OxR2 [8]", "value": 15.6, "unit": "nM"}, {"measurement": "SL-increased anxiety-like behaviors (FIG. 10, enclosed arms)", "setting": "Wistar female rats [9]; EPM reanalysis, OG almorexant", "value": "treated with statistical significance"}, {"measurement": "effect on the % OAE", "setting": "Wistar female rats [9]; [18]", "value": "no significant effect; also recorded: Did not significantly modify"}, {"measurement": "effect on the % TOA", "setting": "Wistar female rats [9]; [18]", "value": "no significant effect; also recorded: Did not significantly modify"}, {"measurement": "effect on the AE", "setting": "Wistar female rats [9]; [18]", "value": "increased; also recorded: Tended to increase"}, {"measurement": "anxiety-like behavior", "setting": "Wistar female rats [9]; EPM, almorexant 100 mg/kg PO", "value": "did not induce effect"}, {"measurement": "motor exploratory activity", "setting": "Wistar female rats [9]; EPM, almorexant 100 mg/kg PO", "value": "increased"}, {"measurement": "Number of arm entries (AE)", "setting": "Wistar female rats [9]; [19]", "value": 23.8}, {"measurement": "Percentage of open arm entries (% OAE)", "setting": "Wistar female rats [9]; [19]", "value": 38.1, "unit": "%"}, {"measurement": "Percentage of time spent in open arms (% TOA)", "setting": "Wistar female rats [9]; [19]", "value": 34.9, "unit": "%"}, {"measurement": "growth rate", "setting": "[10]; SL-Almo vs SL-Veh, OG (FIG. 30)", "value": "consistently found to increase growth rate back to LL levels"}, {"measurement": "body weight (BW, percent of initial BW)", "setting": "[10]; SL-Almo vs SL-Wat, d29 to d54, 100 mg/kg PO", "value": "increased the BW"}, {"measurement": "Body weight in percent of initial body weight (d−4)", "setting": "[10]; d29-t1, during treatment", "value": 164.4, "unit": "%"}, {"measurement": "Body weight in percent of initial body weight (d−4)", "setting": "[10]; d31-t3, during treatment", "value": 167.0, "unit": "%"}, {"measurement": "Body weight in percent of initial body weight (d−4)", "setting": "[10]; d33-t5, during treatment", "value": 168.8, "unit": "%"}, {"measurement": "Body weight in percent of initial body weight (d−4)", "setting": "[10]; d36-t8, during treatment", "value": 173.4, "unit": "%"}, {"measurement": "Body weight in percent of initial body weight (d−4)", "setting": "[10]; d38-t10, during treatment", "value": 175.5, "unit": "%"}, {"measurement": "Body weight in percent of initial body weight (d−4)", "setting": "[10]; d40-t12, during treatment", "value": 176.6, "unit": "%"}, {"measurement": "Body weight in percent of initial body weight (d−4)", "setting": "[10]; d43-t15, during treatment", "value": 179.7, "unit": "%"}, {"measurement": "Body weight in percent of initial body weight (d−4)", "setting": "[10]; d45-t17, during treatment", "value": 181.7, "unit": "%"}, {"measurement": "Body weight in percent of initial body weight (d−4)", "setting": "[10]; d47-t19, during treatment", "value": 183.5, "unit": "%"}, {"measurement": "Body weight in percent of initial body weight (d−4)", "setting": "[10]; d50-t22, during treatment", "value": 185.5, "unit": "%"}, {"measurement": "Body weight in percent of initial body weight (d−4)", "setting": "[10]; d52-t24, during treatment", "value": 187.5, "unit": "%"}, {"measurement": "Body weight in percent of initial body weight (d−4)", "setting": "[10]; d54-t26, during treatment", "value": 187.0, "unit": "%"}]}]}
